The text below walks through data of ChEMBL document CHEMBL2046314, “Chlorine atom substitution influences radical scavenging activity of 6-chromanol” (Bioorg Med Chem, 2012).

The structures appear in SMILES notation.

The nature of data set [1]: Antioxidant activity assessed as second order rate constant for galvinoxyl radical scavenging activity in acetonitrile solution by UV-visible absorption spectroscopy. Format: functional.
A short description of data set [2]: Hydroxyl radical scavenging activity assessed as reduction of DMPO-OH adduct formation using Fenton reaction by ESR spectroscopy. It is filed as functional.
Data set [3] in a line: Dissociation constant, pKa of the compound by UV-visible absorption spectroscopy. Format: physicochemical.

As usually defined, the pKa is the negative logarithm of the acid dissociation constant. On to `CC1(C)CCc2cc(O)ccc2O1`, for which the Activity in data set [1] was 98 M⁻¹ s⁻¹; in data set [2] it was “Dose-dependent effect”. The pKa in data set [3] came to 10.3.
The corresponding values for `CC1(C)CCc2c(Cl)c(O)c(Cl)c(Cl)c2O1` are 54 M⁻¹ s⁻¹, “Dose-dependent effect” and 7.1.
The corresponding values for `CC1(C)CCc2cc(O)cc(Cl)c2O1` are 21 M⁻¹ s⁻¹, “Dose-dependent effect” and 9.8.
The corresponding values for `CC1(C)CCc2c(ccc(O)c2Cl)O1` are 37 M⁻¹ s⁻¹, “Dose-dependent effect” and 8.6.
As to `CC1(C)CCc2c(cc(Cl)c(O)c2Cl)O1`, the values for the Activity in data set [1] and in data set [2] were 67 M⁻¹ s⁻¹ and “Dose-dependent effect”, respectively. The compound also registered a pKa in data set [3] of 7.7.
The corresponding values for `CC1(C)CCc2cc(O)c(Cl)cc2O1` are 42 M⁻¹ s⁻¹, “Dose-dependent effect” and 9.1.
